Experimental data reported in PubChem BioAssay AID179 (DTP/NCI, 2004).
Active and inactive are the calls of the source.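 Rule for the calls: active = compounds giving half or more protection of infected cells from virus-caused growth loss, again on retest; inactive = the rest.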 Where a SMILES comes first, the peptide text is derived from it. [ ]: non-standard residue; d: D form. Abu = CC[CH](N)C(=O)O

Test system: CEM cells HIV-1 protection, formazan growth assay
Assay: NCI AIDS Antiviral Assay
Details: for IC50: measured here: growth of uninfected CEM cells
Outline: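 Five concentrations of each compound were applied to infected and uninfected human CEM cells. Protection from HIV-1 was judged from growth measured with a soluble formazan assay.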

| Structure (SMILES) | EC50 [µM] | IC50 [µM] | outcome |
| --- | --- | --- | --- |
| S=c1nc2[nH]c3ccc(Br)cc3c2n[nH]1 | > 200 | 27.5 | – |
| NC1=NCC(CN2CCOCC2)O1 (stereo unspecified) | > 200 | > 200 | – |
| N=C(N)c1ccc(N=Nc2cc(N=Nc3ccc(C(=N)N)cc3)c(O)cc2O)cc1 | 85.1 | > 100 | – |
| CC(=O)NC1Cc2ccccc2C1=O (stereo unspecified) | > 200 | > 200 | – |
| N=C(N)Cc1ccc(NC(=O)c2ccc(C(=O)Nc3ccc(CC(=N)N)cc3)cc2)cc1 | > 70.8 | 22.4 | – |
| COC(=O)C1Cc2ccc(O)c(O)c2CN1 (stereo unspecified) | > 33.9 | 8.91 | – |
| CCC(N)C(=O)NC(C(=O)NC(CC(C)C)C(=O)NC(CC(N)=O)C(=O)NC(Cc1ccccc1)C(=O)O)C(C)O (stereo unspecified) (H-[Abu]TLNF-OH; configuration not given here) | – | – | inactive |
| CCCCCCCCC1=C(OC)C(=O)c2ccc(COC(C)=O)nc2C1=O | – | – | inactive |
| CC(C)=CCC[C@]1(C)C=Cc2c(O)c3c(c(CC=C(C)C)c2O1)O[C@]12C(=C[C@@H]4CC1C(C)(C)O[C@@]2(C/C=C(/C)C(=O)O)C4=O)C3=O | > 0.2 | 0.0631 | – |
| O=C1CCC2(C=Nc3ccccc32)C2Cc3ccccc3N12 (stereo unspecified) | > 13.2 | > 13.2 | – |
| CCOP(=O)(OCC)c1c(C(=O)OC)cc(=O)[nH]c1-c1ccc(C)cc1 | > 200 | 7.94 | – |
| NCCN.NCCN.NCCN.O=C([O-])[C@@H](O)[C@@H](O)C(=O)[O-].[Cl-].[Co+3] | > 100 | > 100 | – |
| COc1ccc2c(=O)c3ccoc3[nH]c2c1 | > 100 | > 100 | – |
| CC1(C)C2CCC(N)(C2)C1O (stereo unspecified) | > 200 | > 200 | – |
| C[N+](C)(C)CC(=O)N/N=C/c1oc(-c2c(O)ccc3ccccc23)c(-c2c(O)ccc3ccccc23)c1[N+](=O)[O-] | > 45.7 | 24.5 | – |
| CC1(C)CC(=O)c2c(-c3ccc(Cl)cc3)c(C#N)c(=S)n(C3OC(CO)C(O)C(O)C3O)c2C1 (stereo unspecified) | > 200 | 31.6 | – |
| Cc1ccccc1S(=O)(=O)Nn1cnc2ccc(S(=O)(=O)Nc3ccc(Cl)cc3)cc2c1=O | – | – | inactive |
| CCOc1ccc(NC(=O)C2=C(C)NC(C)=C(C(=O)Nc3ccc(OCC)cc3)C2c2ccccc2)cc1 | > 36.3 | > 36.3 | – |
| COc1cccc(C=NC23CC4CC(CC(C4)C2)C3)c1 | > 69.2 | > 69.2 | – |
| O=C(NP(=O)(N1CC1)N1CC1)c1cc(I)ccc1I | > 200 | 3.98 | – |
| CC(=C(C(=O)O)C(=O)O)c1cc(-c2cccs2)cc(-c2ccc(Cl)cc2)c1O | > 200 | 12.3 | – |
| Cc1c(Cc2cc(C(C)(C)C)c(O)c(C(C)(C)C)c2)c(C)c(Cc2cc(C(C)(C)C)c(O)c(C(C)(C)C)c2)c(C)c1Cc1cc(C(C)(C)C)c(O)c(C(C)(C)C)c1 | – | – | inactive |
| Cc1ccc(NC(=O)CCC(=O)C2Cc3ccccc3C2=O)cc1C (stereo unspecified) | > 741 | 724 | – |

| Structure (SMILES) | EC50 [µM] | IC50 [µM] | outcome |
| --- | --- | --- | --- |
| S=C(N/N=C/c1ccccn1)Nc1ccc(Cl)cc1 | > 2 | 0.0891 | – |
| COC(=O)c1cccc2c3ccccc3c3ccccc3c12 | – | – | inactive |
| O=c1c2ccc3cccc4c(=O)cc(c5ccccc15)-c2c34 | – | – | inactive |
| CC(=O)CC(=O)N(CCN(C(=O)CC(C)=O)c1ccccc1)c1ccccc1 | > 178 | > 178 | – |
| CN1c2c(C(=O)Nc3nccs3)nn(-c3ccccc3)c2-c2ccccc2S1(=O)=O | > 22.9 | > 22.9 | – |
| O=c1ccn(Cc2ccccc2)c(=S)[nH]1 | > 200 | > 200 | – |
| Cc1cccc(-c2nc3sc(-c4cccc(C)n4)nc3s2)n1 | – | – | inactive |
| CC(=O)N(O)c1ccccc1-c1ccccc1 | > 200 | 102 | – |
| CCc1nc2ccc(N=Nc3c(O)ccc4ccccc34)cc2[nH]1 | > 58.9 | 24.5 | – |
| Cc1cc2c(cc1C)NC(=O)C(NC(=O)c1ccc(Cl)cc1)C=N2 (stereo unspecified) | > 200 | > 200 | – |
| COC(C[C@H]1CCCC[C@]1(O)/C(=C\CO[Si](C(C)C)(C(C)C)C(C)C)Sc1ccccc1)OC | > 200 | 72.4 | – |
| CC(C)(C)[Si](C)(C)OC1C(CC#N)C(CO)OC1n1ccc(=O)[nH]c1=O (stereo unspecified) | > 200 | > 200 | – |
| COC1CC2(C[Si](C)(C)C)OC(=O)OC2C(C)O1 (stereo unspecified) | – | – | inactive |
| Cn1c(=N)c2cnn(-c3ccccc3)c2n(C)c1=O | > 490 | > 490 | – |
| COC1OC(C(C)Br)C2OC(C)(C)OC12 (stereo unspecified) | > 200 | > 200 | – |
| O=C(Nc1cccc(C(F)(F)F)c1)C(=O)C1NC(=S)NC1=O (stereo unspecified) | > 191 | > 191 | – |
| COC(=O)[C@@H]1[C@H]2C[C@@H]3c4[nH]c5ccccc5c4CCN3C[C@@H]2CC[C@@H]1O | – | – | inactive |
| O=C1CCC2(c3ccc(Cl)cc3)SCCN12 (stereo unspecified) | > 200 | 145 | – |
| Nn1c(Sc2nc3ccccc3c(=O)n2N)nc2ccccc2c1=O | > 200 | 3.8 | – |
| Oc1ccc(Cl)cc1C(c1cc(Cl)ccc1O)C(Cl)(Cl)Cl | 9.77 | 16.6 | – |
| CC(=O)/C(=C\N1CCNC1=S)C(=O)Nc1ccccc1 | > 200 | > 200 | – |
| CC(=O)OCC1C(OC(C)=O)CC2CCC1N2C#N (stereo unspecified) | > 200 | > 200 | – |
| O=C(c1ccc(Cl)cc1)C1N=NCC1c1ccccc1 (stereo unspecified) | > 200 | 75.9 | – |

| Structure (SMILES) | EC50 [µM] | IC50 [µM] | outcome |
| --- | --- | --- | --- |
| COc1ccccc1NC(=O)/C(C=NC(=S)c1ccncc1)=C(\C)O | – | – | inactive |
| Cc1cc(C)nc(NS(=O)(=O)c2ccc(Nc3c4ccc(Cl)cc4nc4ncccc34)cc2)n1 | – | – | inactive |
| SCCN1CCCN(CCS)CCC1 | > 200 | 135 | – |
| COc1ccccc1CNCCCCCNCCCCCCCCCCNCCCCCNCc1ccccc1OC | > 200 | 28.8 | – |
| COc1cc2c(c(O)c1OC)C(O)C1CCC(=O)N1C2c1ccc2c(c1)OCO2 (stereo unspecified) | > 200 | 135 | – |
| C=CCc1cccc(/C=N\N=C(/N)NO)c1O | – | – | inactive |
| Cc1ccc2cc(NC(=O)CN)c3ccc(C)nc3c2n1.Cc1ccc2cc(NC(=O)CN)c3ccc(C)nc3c2n1.O=C1OC(C(O)C[O-])C(O)=C1O.[Cu+] | > 12.6 | 0.562 | – |
| CC(C)OP(=O)(CP(=O)(OC(C)C)OC(C)C)OC(C)C.[CH3][Sn]([Br])([Br])[Br] | > 347 | > 347 | – |
| CNC(=S)N1CCN(C(C)=O)C1=S | > 200 | > 200 | – |
| C[C@@H]1C(=O)CC2C(C)(C)CCC[C@]2(C)[C@@]12CC[C@]1(C=COC1)O2 (stereo partly specified) | > 50.1 | > 50.1 | – |
| CC1=NNB(O)c2sccc21 | > 562 | 145 | – |
| CC(=O)C(N1CCCCC1)C(O)(C(F)(F)F)C(F)(F)F (stereo unspecified) | > 200 | 91.2 | – |
| CC[C@]1(O)C[C@H]2CN(CCc3c([nH]c4ccccc34)[C@@](C(=O)OC)(c3cc4c(cc3OC)N(C=O)[C@H]3[C@@](O)(C(=O)OC)[C@H](OC(C)=O)[C@]5(CC)C=CCN6CC[C@]43[C@@H]65)C2)C1 | > 0.0302 | 0.000525 | – |
| COc1cc2c(cc1OC)-c1cc3cc(OC)c(OC)cc3n1CC2 | > 4.27 | 2.4 | – |
| O=C1CCC(=O)N1C(c1ccccc1)(c1ccccc1)N1C(=O)CCC1=O | > 200 | 15.1 | – |
| COc1ccc2c3c(coc13)C(CCC(=O)O)CC2 (stereo unspecified) | – | – | inactive |
| C=C[C@H]1C=Cc2ccccc2[C@]1(C=O)CCC1(C)OCCO1 | > 832 | 676 | – |
| CC(=O)NNc1nc(C)c(C(=O)NNC(=O)C(=O)Nc2ccc(Cl)cc2Cl)s1 | – | – | inactive |
| CC1(C(=O)Nc2ccc3cc4ccccc4cc3c2)CC2(C)CC(C)(C1)C(O)NC2=O (stereo unspecified) | – | – | inactive |
| O=C(O)c1cc(CCc2cc(O)ccc2O)ccc1O | > 182 | 28.8 | – |
| CC1CCP(=O)(c2ccccc2)C1 (stereo unspecified) | > 1290 | > 1290 | – |
| Cc1cn(C2CC(N=[N+]=[N-])C(C(=O)O)O2)c(=O)[nH]c1=O (stereo unspecified) | 11.7 | > 200 | – |
| O=C1C=CC(=Nc2ccc3c(c2)Cc2ccccc2-3)O1 | > 200 | 32.4 | – |

| Structure (SMILES) | EC50 [µM] | IC50 [µM] | outcome |
| --- | --- | --- | --- |
| O=C1C(S)=[N+](O)c2ccccc2[N+]1=O | > 200 | > 200 | – |
| Nc1nc(NNc2cccc(F)c2)cc(=O)[nH]1 | > 200 | 16.6 | – |
| COC(=O)CCc1ccc2c(c1)CC1(C2)Cc2ccc(CCC(=O)OC)cc2C1 | > 200 | 57.5 | – |
| O=C(O)c1ccc(CS(=O)c2ccccc2C(=O)O)c([N+](=O)[O-])c1 (stereo unspecified) | > 708 | > 708 | – |
| N#CC1(C#N)C2(c3ccccc3)OC(c3ccccc3)(c3cc4ccccc4cc32)C1(C#N)C#N | – | – | inactive |
| CC(=O)SCC1OC(n2cc(C)c(=O)[nH]c2=O)CC1O (stereo unspecified) | > 200 | > 200 | – |
| COc1cccc(NC(=O)CC(=O)N2N=C(n3ccc4ccccc43)CC2c2ccccc2)c1 (stereo unspecified) | – | – | inactive |
| CC(=O)C1C(=O)C(=O)N(c2ccc(Br)cc2)C1=O (stereo unspecified) | – | – | inactive |
| CCOC(=O)C(Sc1ccccc1)c1c(OC)cc(=O)oc1/C=[N+](/[O-])c1ccc(N(C)C)cc1 (stereo unspecified) | – | – | inactive |
| O=C(NCCn1ccnn1)Nc1ccccc1 | > 200 | > 200 | – |
| CCO/C=N\C1=C(C#N)SC2=N/C(=C\c3ccco3)C(=O)N21 | – | – | inactive |
| Cc1ccc(C(=O)c2c(C)cccc2C(=O)O)c(C)c1 | > 200 | > 200 | – |
| c1ccc(CNc2nncc3[nH]cnc23)cc1 | > 200 | > 200 | – |
| CCOC(=O)C[C@](C)(O)C1CCCN1 (stereo partly specified) | – | – | inactive |
| C=C(C)C(CC=C(C)C)CC12CC(CC=C(C)C)C(C)(C)C(CC=C(C)C)(C(=O)C(Cc3ccc(O)c(O)c3)=C1O)C2=O (stereo unspecified) | > 200 | 158 | – |
| COC(=O)C1=CCC(n2cc(C)c(=O)[nH]c2=O)CC1 (stereo unspecified) | > 257 | > 257 | – |
| CN(C)c1ccc(N=Nc2ccc3c(c2)C(=O)c2ccccc2C3=O)cc1 | > 200 | > 200 | – |
| Clc1ccc(OCc2nnc3n2N=C(c2ccc(Br)cc2)CS3)cc1 | – | – | inactive |
| CCCCCCCCCCCCCCCCCC(=O)OCC(O)CO (stereo unspecified) | > 2.09 | > 2.09 | – |
| CC(C)=C1C2CCC1C(CO)C2CO (stereo unspecified) | > 457 | > 457 | – |
